{
  "source": "patent US5959109A",
  "about": "“Compounds and methods for increasing endogenous levels of corticotropin-releasing factor” (Neurocrine Biosciences, Inc., priority 1996, dated 1999)",
  "key": {"[1]": {"assay": "Morris water maze test", "type": "in vivo, rat", "settings": "1 or 20 mg/kg oral, 15 minutes prior to testing; FIGS. 4A, 4B", "procedure": "As discussed in more detail below (see Example 6), 15 minutes prior to training on each of days 1-3, groups of animals orally receive control solution or a dosage of the ligand inhibitor. Control animals typically reach the platform within five to ten seconds after three days of training. The measure of the memory modulator effects of a ligand inhibitor is a shift of this time period. Administration of a ligand inhibitor results in a dose-dependent increase in availability of synaptic CRF and a behavioral dose-dependent increase in acquisition and memory retention.\nThe Morris Water Maze Test is a simple spatial learning task that requires a minimal amount of stress and experience. […] The latency time to find a hidden platform is monitored. […]\nThe apparatus used in this test is a pool (46.4 cm in diameter, 45.7 cm high) filled to a depth of 23 cm with opaque water (22° C.-25° C.). […] The animal is placed into a designated quadrant of the tank and the time to approach and ascend the hidden platform is measured; the location of subject placement and platform remain constant throughout the experiment. […]\nRats were treated by oral administration with either vehicle or 1 or 20 mg/kg of either Compound No. 1 or Compound No. 153 15 minutes prior to testing. The latency time to reach the platform in the Morris water maze was recorded for each group."}, "[2]": {"assay": "Automated passive avoidance learning", "type": "in vivo, rat", "settings": "oral, 5 minutes after training period; FIGS. 5A, 5B", "procedure": "FIGS. 5A and 5B are graphs depicting the effect of administration of representative ligand inhibitors of this invention, Compound Nos. 97-1 and 153, respectively. The ligand inhibitors were administered 5 minutes post-training period in the passive avoidance test.\nThe apparatus for both rats and mice is the same as used in active avoidance testing (see Example 14).\nFor the training trial, the animal is placed individually in one compartment of the learning apparatus, which is separated from a second compartment by a guillotine door. Following a three minute habituation period, the door is opened and the latency to enter the second compartment is recorded. When the animal enters with all four paws, the door is closed, and a 0.5 second AC footshock (Coulburn precision shocker) is delivered. After five seconds, the subject is removed and placed in its home cage. At the time of testing (usually 1-7 days later), the animal is returned to the compartment in which it was initially placed for the learning trial, the door is opened and the latency to enter the second compartment is recorded, but the animal is not shocked. […]\nFor most strains of rats with weights between 150 and 350 grams, an effective footshock intensity ranges from 0.2-1.0 mA. […] The latency time of rats to enter the dark compartment is measured. […]"}, "[3]": {"assay": "Elevated plus-maze test", "type": "in vivo, rat", "settings": "ICV", "from_the_text": "The Elevated plus-maze test predicts how animals respond to an approach-avoidance situation involving an exposed, lighted space versus a dark, enclosed area. In the maze, both spaces are elevated off the ground and constitute two runways intersecting in the form of a plus sign. This type of approach-avoidance situation is a classical test of \"emotionality\" and is very sensitive to treatments that produce disinhibition (such as sedative or hypnotic drugs) and stress. No motivational constraints are necessary and the animal is free to remain in the dark or venture out onto the open arms.\nThe elevated plus-maze apparatus has four arms (50 cm long, 10 cm wide) situated at right angles to each other and elevated from the floor (50 cm). Two of the arms are enclosed with walls (40 cm high) and two arms have no walls (open arms). Subjects are placed individually into the center of the maze and allowed free access to all four arms for a 5 minute testing period. The time spent in each arm is recorded automatically by photocell beams and a computer interface.\nGroups of 7-10 rats receive ICV injections of the ligand inhibitor. For purposes of comparison, rats also receive 0 or 0.1-25 μg of h/rCRF (1-41)."}, "[4]": {"settings": "cited from earlier work"}, "[5]": {"tested_on": "CRF receptors", "settings": "rat, in vivo; cited from earlier work"}, "[6]": {"tested_on": "human CRF-BP", "settings": "cited from earlier work"}, "[7]": {"tested_on": "CRF/CRF-BP complexes", "assay": "Disruption of CRF/CRF-BP complexes in human brain tissue in vitro", "type": "binding", "from_the_text": "Other peptide molecules, which are distinct from CRF, bind CRF-BP. For example, the human neuropeptide urocortin (Vaughan et al., Nature 378:287, 1995) has a high affinity for human CRF-BP. […] Thus, CRF-BP may be a modulator of a family of CRF-related peptides. […] Such disruption has the effect of increasing free CRF levels, thus making more CRF available for binding to its receptors. The ligand inhibitors of the present invention may also be used to elevate free levels of urocortin and other members of the CRF family in mammals. Assays for measuring the increase of urocortin (as well as other CRF-related peptides) are performed essentially as described herein for CRF, except that the appropriate detection molecules are employed (e.g., antibody to urocortin). Moreover, urocortin, sauvagine, urotensin, and the like and their analogues may be used to inhibit CRF/CRF-BP complexes and raise free CRF levels or inhibit urocortin/CRF-BP complexes and raise free urocortin levels."}},
  "note": "Ends that are not written are not given here.",
  "data": [
    {"compound": "COc1ccc(Cn2c(O)c(C=Nc3ncc(C)s3)c(=O)n(Cc3ccc(OC)cc3OC)c2=S)c(OC)c1", "note": "[Compound 153]", "values": [
      {"measurement": "latency time to reach the platform / performance", "setting": "[1]", "result": "improved performance at each time interval"},
      {"measurement": "latency time to entering the dark compartment", "setting": "[2]", "result": "increase in medium latency time"}
    ]},
    {"compound": "human CRF: peptide that regulates the release of adrenocorticotropin (ACTH), β-endorphin, and other POMC-derived peptides from the pituitary", "values": [
      {"measurement": "time on the open arms / performance", "setting": "[3]", "result": "significantly more time on the open arms, indicating increased anxiety"},
      {"measurement": "nocturnal food intake", "setting": "[4]; rat, in vivo", "result": "significant decrease on nocturnal food intake"},
      {"measurement": "temperature response in brown adipose tissue", "setting": "[4]; rat, in vivo", "result": "increased temperature response in brown adipose tissue"},
      {"measurement": "body weight", "setting": "[4]; rats", "result": "lowered body weight in rats"},
      {"measurement": "carbachol-induced behaviors", "setting": "[5]", "result": "inhibits carbachol-induced behaviors"},
      {"measurement": "affinity for CRF-BP", "setting": "[6]", "result": "high affinity"}
    ]},
    {"compound": "rat urocortin: rat urocortin (DDPPLSIDLTFHLLRTLLELARTQSQRERAEQNRIIFDSV; ends and bridges not checked; UniProt P55090 81-120, looked up)", "values": [
      {"measurement": "disruption of CRF/CRF-BP complexes", "setting": "[7]", "result": "can disrupt the CRF/CRF-BP complexes"}
    ]}
  ]
}
